# Data from the METLIN SMRT retention time set (Domingo-Almenara et al. 2019).
# Experiment: gradient 5% acetonitrile 3 min, to 50% in 2 min, to 85% in 15 min, held 3 min, 100 µL/min
# Conditions: column: Zorbax Extend-C18 2.1 x 50 mm; eluents: water / acetonitrile, 0.1% formic acid
# Outline: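 Retention times of pure standards were taken from adduct peaks that were selected by computer and manually inspected. Over 3 months, mixtures of ~100 molecules were run by HPLC–quadrupole time-of-flight mass spectrometry in positive and negative ionization mode. The Zorbax Extend-C18 column (2.1 × 50 mm, 1.8 μm) ran at 100 μL/min in water and acetonitrile, each containing 0.1% formic acid, with 40 μL dead volume and 900 μL dwell volume.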
row,SMILES,RP-LC retention time
1,CCOC(=O)C1CCCN(Cc2nc3nc(C)cc(N4CCOCC4)n3n2)C1 (centres undefined),576 s
2,CC(C)Cn1cc(CCNC(=O)c2ccccc2C(F)(F)F)c2cccnc21,854 s
3,O=C(c1cc(-c2ccncc2)n[nH]1)N1CCC(C(=O)N2CCN(C(=O)c3ccco3)CC2)CC1,566 s
4,Cc1nn(C)c(=O)c2cc(S(=O)(=O)NCc3ccc(Cl)cc3)cn12,822 s
5,CN(CCCNC(=O)CN1C(=O)CSc2cccn2-c2ccccc21)Cc1ccccc1,677 s
6,CCc1noc2nc(C)n(CC(=O)NCc3ccccc3OC)c(=O)c12,832 s
7,Cc1ccc(N2C(=O)C3N=NN(c4ccc(C)c(Cl)c4)C3C2=O)cc1F (centres undefined),836 s
8,Cc1ccc(CNC(=O)c2nnc(-c3ccc(S(=O)(=O)N4CCCCC4)cc3)o2)o1,952 s
9,Cc1cc(C)c(C)c(S(=O)(=O)N2CCCC2c2nc(-c3ccc(F)cc3)no2)c1C (centres undefined),1310 s
10,CCOC(=O)c1c(S(=O)(=O)N2CCC(C(=O)Nc3ccc(F)c(Cl)c3)CC2)c(C)n(C)c1C,935 s
11,CCCNC(=O)c1ccc2c(c1)N(C)C(=O)CS2,843 s
12,O=C(O)c1cccc(Nc2c(-c3ccc([N+](=O)[O-])cc3)nc3cnccn23)c1,717 s
13,COc1ccc2cc3c(=O)n(-c4ccc(C(=O)O)cc4)nc-3oc2c1,891 s
14,COc1ccc(-c2noc(Cc3nnc(-c4cccc(Cl)c4)o3)n2)cc1F,1060 s
15,O=C(NCc1ccco1)N(c1ccccc1)c1ccccc1,810 s
16,Cc1cc(-c2nnc(-c3ccccc3)o2)c(C)n1CC(=O)NCc1ccccc1,903 s
17,CC1CCCN(C(=O)c2csc(-c3ccc(N4CCCC4)nc3)n2)C1 (centres undefined),660 s
18,CCNC(=O)C1CCCN(c2nc3ncn(CC(=O)Nc4cc(C)cc(C)c4)c(=O)c3s2)C1 (centres undefined),716 s
19,O=C(NC1CCCCC1)C1CCN(Cc2cc3ccccc3n2Cc2cccc(Cl)c2)CC1,847 s
20,CCN1CCn2cc(C(=O)NCc3cccc(Br)c3)nc2C1,600 s
21,CC(C)(C)NCC(O)c1ccccc1Cl (centres undefined),650 s
22,CCn1c(CNC(=O)C2CCC2)nc2c1CN(S(=O)(=O)c1ccc(C)cc1)CC2,649 s
23,N#Cc1ccc(C(=O)NCc2cnoc2-c2ccc(F)cc2)cc1,848 s
24,Cc1ccc(C2CC(=O)c3cnc(Nc4nc(C)c5cccc(C)c5n4)nc3C2)cc1 (centres undefined),794 s

row,SMILES,RP-LC retention time
1,Cc1ccc(S(=O)(=O)c2cnc(N3CCN(c4cccc(C)c4)CC3)nc2N)cc1,1130 s
2,Cc1ccc2[nH]cc(CCN3CC(C(=O)NC4CCCCC4)CC3=O)c2c1 (centres undefined),819 s
3,CCCn1ccc2oc(C)c(C(=O)NCc3ccc(CC)cc3)c2c1=O,1170 s
4,COc1ccc(-c2cc(C(=O)N3CCN(c4ccc(N5CCOCC5)nn4)CC3)[nH]n2)cc1,625 s
5,CC(C)NC(=O)c1ccc2nc(-c3ccccc3)cn2c1,604 s
6,O=C(C1CCC1)N1CCC(c2noc(-c3cnccn3)n2)C1 (centres undefined),655 s
7,Cc1nc(-c2cccc(-c3noc(C(=O)NCCCN4CCC(C)CC4)n3)c2)cs1,699 s
8,CCn1cc(S(=O)(=O)N2CCCn3nc(-c4cccs4)cc3C2)cn1,816 s
9,COC(=O)c1cc(S(=O)(=O)N2CCCC2C(=O)NCc2ccccn2)cn1C (centres undefined),590 s
10,Cc1cccc(-c2noc(CN3C(=O)C(C)Oc4ccccc43)n2)c1 (centres undefined),1110 s
11,O=C(NCc1ccc(F)cc1F)c1sc2ncccc2c1-n1cccc1,1020 s
12,COc1cccc(Oc2ncc(-c3cccc(C(=O)NC4CC4)c3)cn2)c1,797 s
13,Cn1c(=O)c2c3c(cnc2n(C)c1=O)C(=O)CCC3,704 s
14,Cc1cccc2nnc(N3CCC(C(=O)N4CCOCC4)CC3)n12,568 s
15,CCNC(=O)c1nc(C(=O)NCc2ccccc2F)cs1,765 s
16,O=C(CN1C(=O)C2CCCCN2c2ccc(C(=O)N3CCCCC3)cc21)NCc1ccco1 (centres undefined),784 s
17,O=C(Cn1nc2c(N3CCCCCC3)nccn2c1=O)Nc1ccc(F)cc1,715 s
18,CCc1ccc(C(=O)N2CCC(c3nc4ccncc4n3C(C)C)C2)cc1 (centres undefined),572 s
19,Cc1oc(C(C)C)nc1C(=O)Nc1ccc(F)c(Cl)c1,1170 s
20,CC(C)n1cnc2cc(CNC(=O)Cc3ccccc3F)ccc21,623 s
21,CN1CCN(C(CNC(=O)Cc2ccc(Cl)cc2)c2ccc3c(c2)OCO3)CC1 (centres undefined),587 s
22,Cc1ccc(S(=O)(=O)NCCc2cn(CC(C)C)c3ncccc23)cc1Cl,1070 s
23,CCOCCCNC(=O)C(Cc1c[nH]c2ccccc12)NC(=O)C1CCC(C)CC1 (centres undefined),839 s
24,Cc1cc(C)cc(NC(=O)CN2CCN(Cc3ccc(F)cc3)C(=O)C2=O)c1,798 s

# Results, then the compound that gave them:
row,RP-LC retention time,SMILES
1,597 s,Cn1ncc2c3ccccc3n(CC(=O)NCCCN3CCN(Cc4ccccc4)CC3)c2c1=O
2,987 s,Fc1cccc(-c2nn3c(-c4ccc5ccccc5n4)nnc3s2)c1
3,710 s,Cc1ccsc1C(=O)N1CC[C@@H](n2c(=O)n(C)c3cccnc32)C1
4,1080 s,CC(=O)Nc1ccc2c(c1)CN(C(=O)Cc1ccccc1F)C(C(=O)N(C)C)C2 (centres undefined)
5,770 s,CCc1cc(=O)n(CC(=O)Nc2cccc(C)c2)c(N2CCOCC2)n1
6,581 s,Cn1ccnc1C(=O)N1CC(n2cc(C(=O)N3CCOCC3)nn2)C1
7,774 s,O=C1CC(c2cccc(F)c2)c2c(c(C(=O)O)cn2-c2ccc(F)cc2)N1 (centres undefined)
8,675 s,CC(=O)Nc1nsc(N2CCC(C(=O)N3CCN(c4ccc(C)cc4)CC3)CC2)n1
9,885 s,CCOc1ccc(S(=O)(=O)N2CCCN(c3ccc(=O)n(-c4ccc(F)cc4)n3)CC2)cc1
10,832 s,CCCCNC(=O)c1ccc(-c2ccc3c(c2)CCN3C(C)=O)cc1
11,611 s,CCC(=O)N1CCc2cc(C(=O)N3CCN(Cc4ccc5c(c4)OCO5)CC3)ccc21
12,720 s,Cc1noc(C)c1CCC(=O)Nc1ccccc1NC(=O)c1ccsc1
13,573 s,CC(C)N1CCN(C(=O)C2CC(=O)N(CCc3ccccc3)C2)CC1 (centres undefined)
14,735 s,CCCNc1cc(N2CCCC(CCC(=O)Nc3ccccc3CC)C2)ncn1 (centres undefined)
15,864 s,O=C(Nc1ccc(F)c(Cl)c1)C1CCN(C(=O)c2ncn3c2COC(c2ccccc2)C3)CC1 (centres undefined)
16,668 s,O=C1CC(c2ccccc2)N(Cc2ccc3c(c2)CCO3)CCCCCCN1 (centres undefined)
17,603 s,Cc1ccc(C2CN(S(=O)(=O)c3ccccc3)CCN2C)cc1 (centres undefined)
18,709 s,CC(C)Cn1c(CCNC(=O)c2cccc(F)c2)nc2cccnc21
19,643 s,CC1CCN(Cc2nc3cc(NC(=O)c4ccco4)ccc3n2C(C)C)CC1
20,742 s,CCCC(NC(=O)c1cccc(Cl)c1)C(=O)Nc1nc2ccccc2[nH]1 (centres undefined)
21,857 s,O=C(Nc1nnc(SCc2nnc(-c3ccc4c(c3)OCO4)o2)s1)c1ccccc1

row,RP-LC retention time,SMILES
1,1130 s,Cc1ccc(C)c(N2CCN(c3ccnc(SCC(=O)Nc4ccccc4Cl)n3)CC2)c1
2,912 s,CC(=O)N1c2ccc(S(=O)(=O)N3CCCCCC3)cc2CC1C(=O)NCc1ccccc1 (centres undefined)
3,1110 s,Cc1ccc(-c2ncc(C(=O)N3CC=C(c4ccccc4)CC3)c(-c3ccncc3)n2)cc1
4,652 s,O=C(c1ccco1)N1CCC[C@H]1c1nc(-c2ccccc2)n[nH]1
5,1000 s,Clc1ccc(C2Cn3nnc(-c4nc(-c5ccncc5)no4)c3CO2)cc1 (centres undefined)
6,1390 s,Cc1cc(C)c2c(=O)n(Cc3nc(-c4ccccc4Cl)oc3C)c(=O)n(Cc3ccco3)c2n1
7,708 s,CC(=O)N1CCc2cc(N3CC(C(=O)NCc4ccccc4Cl)CC3=O)ccc21 (centres undefined)
8,772 s,CC(C)c1ccc(NC(=O)Cn2ccc3c(=O)n(C)c(=O)n(C)c32)cc1
9,824 s,CCCn1c(-c2cccc(C(=O)NC(C)c3ccccc3)c2)nc2cccnc21 (centres undefined)
10,776 s,Cc1ccc(NC(=O)N2CCC(n3c(-c4ccco4)nc4cccnc43)C2)cc1 (centres undefined)
11,894 s,CCn1cc(-c2nc(CC(=O)Nc3ccc(F)cc3)cs2)c2cccnc21
12,769 s,O=C(Nc1ccccc1)C1CCCN(S(=O)(=O)c2c[nH]c(C(=O)N3CCCC3)c2)C1 (centres undefined)
13,855 s,CCOC(=O)c1cc(C2CC2)nc2c1c(=O)n(Cc1ccc(F)cc1Cl)c(=O)n2C
14,649 s,CN(C)c1ccc(CNC(=O)c2cc3n(n2)CC(C)(C(=O)NC2CCCCCC2)N(C)C3=O)cc1 (centres undefined)
15,683 s,COC(=O)c1ccccc1NC(=O)CSc1ccc(N2CCCC(C(=O)NC3CC3)C2)nn1 (centres undefined)
16,736 s,CCOC(=O)c1cnc2nc(C)ccc2c1Nc1ccc(C)c(F)c1
17,684 s,CCOc1ccc(N2CCn3c2nnc(C(=O)NCc2ccco2)c3=O)cc1
18,856 s,Cc1ccc(-c2cc(C(=O)O)n(C)c2)cc1
19,730 s,Nc1ccc(C(=O)C(=O)c2ccc(N)cc2)cc1
20,587 s,CCCN1CCN(Cc2nc3nc(C)cc(N4CCCCCC4)n3n2)CC1
